Data taken from patent publication US12428415B2, “Matriptase 2 inhibitors and uses thereof” (Disc Medicine, Inc., priority 2018, dated 2025).

What follows are molecules tested against T1, Human Recombinant Matriptase 2 (Homo sapiens, UniProt Q8IU80) (assay: Matriptase 2 fluorescence based inhibition assay, Method A (100 mM TRIS pH 9, 1 mg/mL BSA)). Details: 1 uM; Assay Used A; read-out: Mar-2 % inhibition at 1 uM.
T1 construct: purchased Enzo Life Sciences (an in-house preparation was also used) ALX-201-752-1
T1 sequence (Q8IU80 1-811): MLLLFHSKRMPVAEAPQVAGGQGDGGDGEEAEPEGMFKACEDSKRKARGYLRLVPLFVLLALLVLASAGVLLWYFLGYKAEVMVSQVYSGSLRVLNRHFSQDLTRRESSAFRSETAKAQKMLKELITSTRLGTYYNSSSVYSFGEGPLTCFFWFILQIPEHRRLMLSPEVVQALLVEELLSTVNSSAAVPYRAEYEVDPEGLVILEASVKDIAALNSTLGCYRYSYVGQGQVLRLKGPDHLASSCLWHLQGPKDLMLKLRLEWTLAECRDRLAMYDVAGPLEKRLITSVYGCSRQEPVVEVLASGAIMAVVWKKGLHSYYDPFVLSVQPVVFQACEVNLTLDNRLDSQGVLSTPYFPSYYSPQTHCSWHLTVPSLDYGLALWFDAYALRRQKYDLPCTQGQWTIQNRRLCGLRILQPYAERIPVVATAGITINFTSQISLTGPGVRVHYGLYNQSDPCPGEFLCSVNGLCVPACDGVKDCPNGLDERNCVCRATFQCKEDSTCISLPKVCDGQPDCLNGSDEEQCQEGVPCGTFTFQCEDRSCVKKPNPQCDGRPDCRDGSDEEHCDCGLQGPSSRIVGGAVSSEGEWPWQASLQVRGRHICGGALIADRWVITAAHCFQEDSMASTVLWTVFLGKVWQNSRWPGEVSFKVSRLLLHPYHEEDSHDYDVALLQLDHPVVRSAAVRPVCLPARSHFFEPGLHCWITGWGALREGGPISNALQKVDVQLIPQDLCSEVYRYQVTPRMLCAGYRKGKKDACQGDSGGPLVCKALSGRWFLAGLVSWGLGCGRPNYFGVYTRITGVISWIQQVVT
Assay type: biochemical
Procedure, shortened: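 At 25° C in 100 mM TRIS pH 9 with 1 mg/mL BSA and 1% DMSO, compounds were preincubated 30 min with 7 nM commercial or 15 nM in-house protein before adding 100 μM Boc-Gln-Ala-Arg-7-amido-4-methyl coumarin. Fluorescence at 360/480 nm after 60 min; single points at 1 and 10 μM, IC50 by variable-slope nonlinear regression.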

inhibition at 1 µM	Structure (SMILES)
50 to 75%	CC(C)(C)c1ccc(Cn2c(C(=O)NC3CCC(N)CC3)cc3ccc(C(=N)N)cc32)cc1 (stereo not drawn) [Compound I-17]
25 to 50%	Cc1cncc(NC(=O)c2cc3ccc(C(=N)N)cc3n2Cc2ccc(C(N)=O)cc2)c1 [Compound I-175]
0 to 25%	CCCOC(=O)NC(=N)c1ccc2cc(C(=O)Nc3cccc(N4CCCC4)c3)n(Cc3ccc(C(N)=O)cc3)c2c1 [Compound I-162]
25 to 50%	N=C(N)c1ccc2c(N)c(C(=O)N[C@H]3CC[C@H](N)CC3)n(CCS(=O)(=O)c3ccccc3)c2c1 [Compound I-56, 3-Amino-N-((1r,4r)-4-aminocyclohexyl)-6-carbamimidoyl-1-(2-(phenylsulfonyl)ethyl)-1H-indole-2-carboxamide]
0 to 25%	N=C(N)c1ccc2cc(C(=O)N[C@H](CO)c3ccccc3)n(Cc3ccc(C(N)=O)cc3)c2c1 [Compound I-86]
25 to 50%	N=C(N)c1ccc2cc(C(=O)N[C@H]3CC[C@H](N)CC3)n(CCc3ccc(F)cc3)c2c1 [Compound I-30]
0 to 25%	N=C(N)c1ccc2cc(C(=O)Nc3cccc(N4CC[C@H](O)C4)c3)n(Cc3ccc(C(N)=O)cc3)c2c1 [Compound I-128]
0 to 25%	N=C(N)c1ccc2cc(C(=O)Nc3ccnc(N4CCCC4)c3)n(Cc3ccc(C(N)=O)cc3)c2c1 [Compound I-178]
25 to 50%	CC[C@@H](NC(=O)c1cc2ccc(C(=N)N)cc2n1Cc1ccc(C(N)=O)cc1)c1ccccc1 [Compound I-96]
0 to 25%	CC1CCC(NC(=O)c2cc3ccc(C(=N)N)cc3n2Cc2ccc(C(N)=O)cc2)CC1 (stereo not drawn) [Compound I-185]
0 to 25%	C[C@H]1CC[C@H](NC(=O)c2cc3ccc(C(=N)N)cc3n2Cc2ccc(C(N)=O)cc2)CC1 [Compound I-186]
25 to 50%	N=C(N)c1ccc2cc(C(=O)Nc3cccc(-n4ccccc4=O)c3)n(Cc3ccc(C(N)=O)cc3)c2c1 [Compound I-153]
0 to 25%	N=C(N)c1ccc2cc(C(=O)NCc3cc(F)cc(F)c3)n(Cc3ccc(C(N)=O)cc3)c2c1 [Compound I-80]

Continued, molecule first:

Structure (SMILES)	inhibition at 1 µM
N=C(N)c1ccc2cc(C(=O)NC3CCC(N)CC3)n(Cc3ccc(OC(F)(F)F)cc3)c2c1 (stereo not drawn) [Compound I-11]	25 to 50%
N=C(N)c1ccc2cc(C(=O)NCc3cccc(N4CCCC4)c3)n(Cc3ccc(C(N)=O)cc3)c2c1 [Compound I-100]	25 to 50%
N=C(N)c1ccc2cc(C(=O)NC3CCN(C(=O)CCN)CC3)n(Cc3ccc(C(F)(F)F)cc3)c2c1 [Compound I-8, N-(1-(3-aminopropanoyl)piperidin-4-yl)-6-carbamimidoyl-1-(4-(trifluoromethyl)benzyl)-1H-indole-2-carboxamide]	25 to 50%
NC(=O)c1ccc(Cn2c(C(=O)Nc3cccc(-c4ccccn4)c3)cc3ccc(C(N)=O)cc32)cc1 [Compound I-136, 1-(4-Carbamoylbenzyl)-N^2-(3-(pyridin-2-yl)phenyl)-1H-indole-2,6-dicarboxamide]	0 to 25%
N=C(N)c1ccc2cc(C(=O)Nc3cccc(N4CCCC4=O)c3)n(Cc3ccc(C(N)=O)cc3)c2c1 [Compound I-156]	0 to 25%
N=C(N)c1ccc2cc(C(=O)Nc3cc(N4CCCC4)ccn3)n(Cc3ccc(C(N)=O)cc3)c2c1 [Compound I-179]	0 to 25%
N=C(N)c1ccc2cc(C(=O)Nc3cccc(-n4cccn4)c3)n(Cc3ccc(C(N)=O)cc3)c2c1 [Compound I-132]	25 to 50%
N=C(N)c1ccc2cc(C(=O)Nc3cc(F)cc(Br)c3)n(Cc3ccc(C(N)=O)cc3)c2c1 [Compound I-126]	0 to 25%
CN1CCC(N(C)C(=O)c2cc3ccc(C(=N)N)cc3n2Cc2ccc(C(N)=O)cc2)C1 (stereo not drawn) [Compound I-103, 6-Carbamimidoyl-1-(4-carbamoylbenzyl)-N-methyl-N-(1-methylpyrrolidin-3-yl)-1H-indole-2-carboxamide]	0 to 25%
N=C(N)c1ccc2cc(C(=O)NC[C@H]3CCCNC3)n(CCS(=O)(=O)c3ccccc3)c2c1 [Compound I-51]	25 to 50%
C[C@H](NC(=O)OC(C)(C)C)C(=O)O/N=C(\N)c1ccc2cc(C(=O)Nc3cccc(N4CCCC4)c3)n(Cc3ccc(C(N)=O)cc3)c2c1 [Compound I-158, (S)-tert-butyl (1-(((amino(1-(4-carbamoylbenzyl)-2-((3-(pyrrolidin-1-yl)phenyl)carbamoyl)-1H-indol-6-yl)methylene)amino)oxy)-1-oxopropan-2-yl)carbamate]	0 to 25%
N=C(N)c1ccc2cc(C(=O)NCC3CCNCC3)n(CCS(=O)(=O)c3ccccc3)c2c1 [Compound I-50]	50 to 75%

Same assay, conditions: at 1 uM; Assay Used = A; read-out: Mar-2 % inhibition at 1 uM

inhibition at 1 µM	Structure (SMILES)
25 to 50%	CC(C)CCn1c(C(=O)N2CCC(CCN)CC2)c(N)c2ccc(C(=N)N)cc21 [Compound I-345, 3-Amino-2-(4-(2-aminoethyl)piperidine-1-carbonyl)-1-isopentyl-1H-indole-6-carboximidamide]
0 to 25%	NCCCC(=O)Nc1cccc(Cn2c(C(=O)N3CCC(CCN)CC3)cc3ccc(/C(N)=N/O)cc32)c1 [Compound I-382]
50 to 75%	N=C(N)c1ccc2cc(C(=O)N[C@H]3CC[C@H](N)CC3)n(Cc3ccc(Oc4ccc(Cl)cc4)cc3)c2c1 [Compound I-247]
25 to 50%	N=C(N)c1ccc2cc(C(=O)NC34CC5CC(CC(O)(C5)C3)C4)n(Cc3ccc(Oc4ccc(F)cc4)cc3)c2c1 [Compound I-244]
0 to 25%	N=C(N)c1ccc2cc(C(=O)N3CCc4ccccc4C3)n(Cc3ccc(-c4ccccc4)cc3)c2c1 [Compound I-311]
0 to 25%	NCCC(=O)Nc1cccc(Cn2c(C(=O)N3CCC(CCN)CC3)cc3ccc(/C(N)=N/O)cc32)c1 [Compound I-381]

Continued, molecule first:

Structure (SMILES)	inhibition at 1 µM
N=C(N)c1ccc2cc(C(=O)N3CCC(F)(F)C3)n(Cc3ccc(NC(=O)CCN)cc3)c2c1 [Compound I-376]	0 to 25%
CNC(=O)c1ccc(Cn2c(C(=O)NC3CCC(C)CC3)cc3ccc(C(=N)N)cc32)cc1 (stereo not drawn) [Compound I-220, 6-Carbamimidoyl-1-(4-(methylcarbamoyl)benzyl)-N-(4-methylcyclohexyl)-1H-indole-2-carboxamide]	0 to 25%
N=C(N)c1ccc2cc(C(=O)NCC3CCCCC3)n(Cc3ccc(C(N)=O)cc3F)c2c1 [Compound I-227, 6-Carbamimidoyl-1-(2-Fluoro-4-carbamoyl-benzyl)-N-(cyclohexylmethyl)-1H-indole-2-carboxamide]	0 to 25%
N=C(N)c1ccc2cc(C(=O)N3CCC(F)(F)C3)n(Cc3ccc(-c4ccccc4)cc3)c2c1 [Compound I-310]	0 to 25%
N=C(N)c1ccc2cc(C(=O)N[C@]34CC5CC(C[C@@](O)(C5)C3)C4)n(Cc3ccc(C(N)=O)cc3)c2c1 [Compound I-198]	0 to 25%
NC(=O)c1ccc(Cn2c(C(=O)Nc3ccc(N4CCCC4)cc3)cc3ccc(/C(N)=N/O)cc32)cc1 [Compound I-268, 1-(4-Carbamoylbenzyl)-6-(N′-hydroxycarbamimidoyl)-N-(4-(pyrrolidin-1-yl)phenyl)-1H-indole-2-carboxamide]	0 to 25%
N=C(N)c1ccc2cc(C(=O)N3CCC(C(=O)NCCCN)CC3)n(Cc3ccc(C(F)(F)F)cc3)c2c1 [Compound I-356, N-(3-Aminopropyl)-1-(6-carbamimidoyl-1-(4-(trifluoromethyl)benzyl)-1H-indole-2-carbonyl)-piperidine-4-carboxamide]	0 to 25%
CC(C)CCn1c(C(=O)N2CC[C@H](F)C2)cc2ccc(C(=N)N)cc21 [Compound I-272]	0 to 25%
N=C(N)c1ccc2c(Cl)c(C(=O)NCC3CCCCC3)n(Cc3ccc(-c4ccccc4)cc3)c2c1 [Compound I-236]	0 to 25%
N=C(N)c1ccc2c(Cl)c(C(=O)N3CCC(F)(F)C3)n(Cc3ccc(C(N)=O)cc3)c2c1 [Compound I-354]	0 to 25%
N=C(N)c1ccc2cc(C(=O)N3CCC(F)CC3)n(CCS(=O)(=O)c3ccccc3)c2c1 [Compound I-343]	0 to 25%
N=C(N)c1ccc2cc(C(=O)N3CCC(CCN)CC3)n(Cc3ccc(Oc4ccc(F)cc4)nc3)c2c1 [Compound I-317]	25 to 50%
N=C(N)c1ccc2cc(C(=O)N[C@H]3CC[C@H](N)CC3)n(Cc3cccc(NC(=O)C4CNC4)c3)c2c1 [Compound I-258, N-((1r,4r)-4-Aminocyclohexyl)-1-(3-(azetidine-3-carboxamido)benzyl)-6-carbamimidoyl-1H-indole-2-carboxamide]	50 to 75%
CC(C)(C)c1ccc(Cn2c(C(=O)N3CC[C@H](F)C3)cc3ccc(C(=N)N)cc32)cc1 [Compound I-298]	25 to 50%
